The text below walks through data of patent US20220361496A1, “HERBICIDE COMPOSITIONS” (UPL CORPORATION LIMITED, priority 2019, published 2022).

Format in all cases: in vivo
For one test, the system named is Brachiaria plantaginea. Briefly: Pre-emergence herbicidal efficacy, % control of Brachiaria plantaginea. To be noted: for % Control 35 DAA Brachiaria plantaginea: 35 DAA (Table 3). The protocol:
(§1) Experiments were carried out evaluate the efficacy, selectivity and synergism of propisochlor combinations when applied at soybean pre-emergence.
(§2) The evaluation for the damage on undesired weeds caused by the compositions was carried out using a scale from 0 to 100%, compared to the untreated control plants. Here, 0 means no damage and 100 means complete destruction of the plants.
(§3) The tables 1 below relate to the herbicidal activity, of the individual actives and the combinations applied in pre-emergence application at 35 days after administration (DAA) treatment.

The next test deals with Spermacoce verticillata. Briefly: Pre-emergence herbicidal efficacy, % weed control of Spermacoce verticillata. The protocol:
as §1, §2, §3

A further test has as its system Ipomoea hederifolia. In words: Pre-emergence herbicidal efficacy, % weed control of Ipomoea hederifolia. Here is the method: as §1, §2, §3
A further test deals with Cenchrus echinatus. Briefly: Pre-emergence herbicidal efficacy, % control of Cenchrus echinatus. The protocol:
as §1, §2

In the next test the test system is Ipomoea grandifolia. In words: Pre-emergence herbicidal efficacy, % control of Ipomoea grandifolia. Here is the method:
as §1, §2

The next test has as its system Brachiaria decumbens. In words: Pre-emergence herbicidal efficacy, % control of Brachiaria decumbens. The protocol: as §1, §2

Regarding `CCOc1nc(F)cc2nc(S(=O)(=O)Nc3c(Cl)cccc3Cl)nn12` [Diclosulam], the “% Control of Brachiaria plantaginea 35 DAA” value in the test with Brachiaria plantaginea (20 g ai/ha) turned out to be 50.0%.
With `Cc1nn(-c2cc(NS(C)(=O)=O)c(Cl)cc2Cl)c(=O)n1C(F)F` [Sulfentrazone], the “% Weed control 35 DAA Spermacoce verticillata” value in the test with Spermacoce verticillata (75 g ai/ha) is 92.25%. The “% Weed control 35 DAA Ipomoea hederifolia” value in the test with Ipomoea hederifolia (75 g ai/ha) is recorded as 98.00%. Further, the “% Control 35 DAA Brachiaria plantaginea” value in the test with Brachiaria plantaginea (150 g ai/ha) amounted to 65.00%.
Regarding `CC(C)C1(C)N=C(c2ncccc2C(=O)O)NC1=O` (stereo not drawn) [imazapyr], in the test with Cenchrus echinatus (26.6 g ai/ha), the “% Control - Cenchrus echinatus 7 DAA” value was 3.8%, the “% Control - Cenchrus echinatus 28 DAA” value is 0.0% and the “% Control - Cenchrus echinatus 35 DAA” value stood at 0.0%. Moreover, in the test on Ipomoea grandifolia (66.6 g ai/ha), the “% Control of Ipomoea grandifolia 7 DAA” value was 16.3%, the “% Control of Ipomoea grandifolia 14 DAA” value stood at 30.0%, the “% Control of Ipomoea grandifolia 21 DAA” value was found to be 51.3% and the “% Control of Ipomoea grandifolia 28 DAA” value turned out to be 62.5%. For the same molecule, in the test on Ipomoea grandifolia (66.6 g ai/ha), the “% Control of Ipomoea grandifolia 35 DAA” value is reported as 63.8%. Moreover, in the test with Brachiaria decumbens (26.6 g ai/ha), the “% Control of Brachiaria decumbens 7 DAA” value is recorded as 30%, the “% Control of Brachiaria decumbens 14 DAA” value came out at 12.5%, the “% Control of Brachiaria decumbens 21 DAA” value worked out at 6.3% and the “% Control of Brachiaria decumbens 28 DAA” value is listed as 2.5%.
In the case of `CC(C)C1(C)N=C(c2nc3ccccc3cc2C(=O)O)NC1=O` (stereo not drawn) [imazaquin], in the test with Cenchrus echinatus (80.5 g ai/ha), the “% Control - Cenchrus echinatus 7 DAA” value is listed as 18.8%, the “% Control - Cenchrus echinatus 28 DAA” value was found to be 10.0% and the “% Control - Cenchrus echinatus 35 DAA” value turned out to be 6.3%. In addition, in the test with Brachiaria decumbens (80.5 g ai/ha), the “% Control of Brachiaria decumbens 7 DAA” value was determined as 30%, the “% Control of Brachiaria decumbens 14 DAA” value worked out at 22.5%, the “% Control of Brachiaria decumbens 21 DAA” value amounted to 21.3% and the “% Control of Brachiaria decumbens 28 DAA” value is reported as 18.8%.
Take `CCc1cccc(C)c1N(COC(C)C)C(=O)CCl` [propisochlor]: in the test on Spermacoce verticillata (525 g ai/ha), the “% Weed control 35 DAA Spermacoce verticillata” value is listed as 92.75%. Besides, the “% Weed control 35 DAA Spermacoce verticillata” value in the test with Spermacoce verticillata (675 g ai/ha) is recorded as 95.75%. Also, the “% Weed control 35 DAA Ipomoea hederifolia” value with Ipomoea hederifolia (525 g ai/ha) is 26.25%. For the same molecule, the “% Weed control 35 DAA Ipomoea hederifolia” value with Ipomoea hederifolia (675 g ai/ha) was determined as 27%. In the test with Cenchrus echinatus (540.0 g ai/ha), the “% Control - Cenchrus echinatus 7 DAA” value is on record as 91.3%, the “% Control - Cenchrus echinatus 28 DAA” value worked out at 75.8% and the “% Control - Cenchrus echinatus 35 DAA” value is 65.0%. In addition, in the test with Cenchrus echinatus (1080.0 g ai/ha), the “% Control - Cenchrus echinatus 7 DAA” value is 95.3%, the “% Control - Cenchrus echinatus 28 DAA” value is 85.0% and the “% Control - Cenchrus echinatus 35 DAA” value came out at 80.0%. Besides, in the test on Ipomoea grandifolia (540 g ai/ha), the “% Control of Ipomoea grandifolia 7 DAA” value was determined as 81.3%, the “% Control of Ipomoea grandifolia 14 DAA” value was found to be 87.0%, the “% Control of Ipomoea grandifolia 21 DAA” value was 87.5% and the “% Control of Ipomoea grandifolia 28 DAA” value was found to be 91.3%. Further, the “% Control of Ipomoea grandifolia 35 DAA” value with Ipomoea grandifolia (540 g ai/ha) came to 91.8%. Also, in the test on Brachiaria plantaginea (1200 g ai/ha), the “% Control of Brachiaria plantaginea 35 DAA” value came to 84.50% and the “% Control 35 DAA Brachiaria plantaginea” value turned out to be 84.50%. Moreover, in the test with Brachiaria decumbens (540 g ai/ha), the “% Control of Brachiaria decumbens 7 DAA” value is recorded as 89.5%, the “% Control of Brachiaria decumbens 14 DAA” value was determined as 85.8%, the “% Control of Brachiaria decumbens 21 DAA” value came out at 78.8% and the “% Control of Brachiaria decumbens 28 DAA” value stood at 70%. For the same molecule, in the test with Brachiaria decumbens (1080 g ai/ha), the “% Control of Brachiaria decumbens 7 DAA” value is 92.8%, the “% Control of Brachiaria decumbens 14 DAA” value was 91%, the “% Control of Brachiaria decumbens 21 DAA” value stood at 85% and the “% Control of Brachiaria decumbens 28 DAA” value stood at 76.3%.
